Source: US8748375B2 (Amylin Pharmaceuticals, LLC, priority 2009, dated 2014)
Marks after values point to notes of the source that are not given here.

Legend:
DIO Levin rats = test: Example 5: amylin versus pramlintide; type: in vivo, rat; conditions: 76 nmol/kg/day, osmotic mini-pump, 24 days
Procedure: 48 DIO Levin rats (an in-bred model of diet induced obesity) were used in this study. […] Food intake and body weight was measured daily. […] The pair-fed groups were only allowed to consume the daily intakes of their respective drug-treated groups. For body composition, rats were scanned in a rodent NMR before treatment and after sacrifice (at the end of the study), allowing for the ability to calculate changes in carcass fat and protein (e.g., lean tissue).

[1] = system: insulin-stimulated glycogen synthesis in soleus muscle; test: Soleus Muscle Assay; type: cell-based, rat
Procedure: Concentrations of peptide dissolved in carrier-free buffers are determined by quantitative amino acid analysis, as described therein. The ability of compounds to act as agonists in this assay is determined by measuring EC50 values. […] Similar results were obtained with other agonist compounds listed above.

[2] = pramlintide 180 mcg TID, 1 day of treatment; cited from earlier work
[3] = adsorption onto glass in liquid form; type: physicochemical; conditions: glass container
From the text: These formulations may then be lyophilized. Surfactants can cause denaturation of protein, both of hydrophobic disruption and by salt bridge separation. Relatively low concentrations of surfactant may exert a potent denaturing activity, because of the strong interactions between surfactant moieties and the reactive sites on proteins. However, judicious use of this interaction can stabilize proteins against interfacial or surface denaturation. Surfactants which could further stabilize the peptide may optionally be present in the range of about 0.001 to 0.3% (w/v) of the total formulation and include polysorbate 80 (i.e., polyoxyethylene(20) sorbitan monooleate), CHAPS® (i.e., 3-[(3-cholamidopropyl) dimethylammonio] 1-propanesulfonate), Brij® (e.g., Brij 35, which is (polyoxyethylene (23) lauryl ether), poloxamer, or another non-ionic surfactant.

[4] = in vivo; cited from earlier work
[5] = system: Retired female breeder rats on high fat diet; test: Example 4: amylin with prior or concurrent food restriction; type: in vivo, rat; conditions: for Estimated Mean Weight change from treatment: amylin 100 μg/kg/day
From the text: Retired female breeder rats were maintained on a high fat diet (40% fat) for 8 weeks. Prior to drug treatment, rats were either ad-lib fed or food restricted to 95% of their starting body weight.

[6] = system: Lean, male Harlan SPRAGUE DAWLEY (HSD) rats; test: Example 3: chronic amylin infusion, lean rats; type: in vivo, rat; design: Fat: dose or concentration left out as unconfirmed
Procedure: (§1) Lean, male Harlan SPRAGUE DAWLEY® (HSD) (Harlan 7012) rats were maintained on “standard chow” (˜5% calories from fat).
(§2) Food intake and body weight were recorded daily (FIGS. 5, 6A, 6B, 7, 8A, and 8B).
(§3) On the final day of the experiment, rats were deeply anaesthetized and sacrificed by cardiac puncture. Plasma triglycerides, glucose, and cholesterol were measured on a COBAS Mira plasma Analyzer (Roche). Plasma leptin and insulin were measured using Linco Research kits. (See, FIGS. 9A-9F and 10A-10E.) Body composition was measured by chemical analysis (Covance Laboratories, Madison, Wis.). Fat pad weights of the epididymal, retroperitoneal, subcutaneous, and perirenal fat pads (all unilateral; analysis only done in DIO animals) were carefully dissected and weighed (FIGS. 12A-12D). In analyzing the tissue biochemistry, […] were powdered under liquid N2 and extracted in chloroform:methanol. 0.6% NaCl solution was then added and the tubes were vortexed, centrifuged, and the organic phase was transferred to glass scintillation vials and dried under a stream of N2. Dried lipids were resuspended and triglycerides were quantified by enzymatic assay (Pointe Scientific, Inc.). Tissue glycogen was measured by the amyloglucosidase method. (See FIGS. 11A-11D.)
(§4) All data are represented as mean±SEM. Analysis of variance (ANOVA) and Bonferroni post-hoc tests were used to test for group differences (SYSTAT® for Windows). A P-value<0.05 was considered significant. Graphs were generated using PRISM® 4 for Windows (Graphpad Software).

DIO (Levin) male rats = test: Example 3: chronic amylin infusion, DIO rats; type: in vivo, rat; design: Ash: dose or concentration left out as unconfirmed
Procedure: as §1, §2, §3, §4

high fat-fed rats = test: Example 2: three doses of amylin, food intake and body weight; type: in vivo, rat
From the text: (§5) Low fat-fed rats (11% kcal from fat, D12329, Research Diets) were also implanted with pumps delivering vehicle. Food intake and body weight measurements were obtained weekly.

[7] = system: High fat-fed male SPRAGUE-DAWLEY rats (DIO); test: Example 1: chronic infusion, food consumption, body weight, body composition; type: in vivo, rat; conditions: obesity-prone rats, vs vehicle control
Procedure: as §5
Rats were sacrificed by cardiac puncture under anesthesia. Triglyceride levels were measured on a COBAS Mira plasma analyzer (Roche), and leptin and insulin were assayed according to Linco Research rat RIA kits. Body composition was measured by chemical analysis (Covance Laboratories, Madison, Wis.).
All data are represented as mean±SEM. Analysis of variance was used to test for group differences.
The rats were fattened for 10 weeks prior to drug treatment. The high fat-fed rats were designated as obesity-prone (top 50% of weight gainers) or obesity-resistant (bottom 50%) based on the amount of weight gained through week 7.

[8] = amylin 300 mg/kg/day, 28-day pump
[9] = DIO rats, amylin 300 mg/kg/day, 28-day pump

CC[C@H](C)[C@H](NC(=O)[C@@H]1CCCN1C(=O)CNC(=O)[C@H](Cc1ccccc1)NC(=O)[C@H](CC(N)=O)NC(=O)[C@H](CC(N)=O)NC(=O)[C@H](CO)NC(=O)[C@H](CO)NC(=O)[C@H](Cc1c[nH]cn1)NC(=O)[C@@H](NC(=O)[C@H](CC(C)C)NC(=O)[C@H](Cc1ccccc1)NC(=O)[C@H](CC(N)=O)NC(=O)[C@H](C)NC(=O)[C@H](CC(C)C)NC(=O)[C@H](CCCNC(=N)N)NC(=O)[C@H](CCC(N)=O)NC(=O)[C@@H](NC(=O)[C@H](C)NC(=O)[C@@H]1CSSC[C@H](NC(=O)[C@@H](N)CCCCN)C(=O)N[C@@H](CC(N)=O)C(=O)N[C@@H]([C@@H](C)O)C(=O)N[C@@H](C)C(=O)N[C@@H]([C@@H](C)O)C(=O)N1)[C@@H](C)O)C(C)C)C(=O)N[C@@H](CC(C)C)C(=O)N1CCC[C@H]1C(=O)N1CCC[C@H]1C(=O)N[C@H](C(=O)N[C@@H](CC(N)=O)C(=O)N[C@H](C(=O)NCC(=O)N[C@@H](CO)C(=O)N[C@@H](CC(N)=O)C(=O)N[C@H](C(=O)N[C@@H](Cc1ccc(O)cc1)C(N)=O)[C@@H](C)O)C(C)C)[C@@H](C)O [^25, 28, 29Pro-h-Amylin]
body composition (DIO Levin rats): favorable effects on body composition | body weight gain (DIO Levin rats): significant effect on slowing body weight gain | amylin agonist activity (in words) [1]: act as amylin agonists | antagonist activity in soleus muscle assay (in words) [1]: negligible antagonist activity | reduction in mean daily caloric intake [2]: ~19% | tendency to adsorb onto glass [3]: does not have a tendency to adsorb onto the glass

CSNLSTCVLGKLSQELHKLQTYPRTNTGSGTP [salmon calcitonin]
delayed effect, peak levels still maintained at [4]: 240 min

amylin: Amylin synthesized by Amylin Pharmaceuticals, Inc. by solid-phase chemistry; species not stated in the examples (KCNTATCATQRLANFLVHSSNNFGAILSSTNVGSNTY; Islet amyloid polypeptide; UniProt P10997 34-70, looked up)
Estimated Mean Weight change from treatment ([5]; Ad-lib prior, Ad-lib during): -21.8 ± 1.4 g | Estimated Mean Weight change from treatment ([5]; Ad-lib prior, Restricted during): -23.1 ± 2.3 g | Estimated Mean Weight change from treatment ([5]; Restricted prior, Ad-lib during): -18.2 ± 2.5 g | Estimated Mean Weight change from treatment ([5]; Restricted prior, Restricted during): -17.1 ± 2.0 g | body weight ([5]; all treatment conditions): significantly reduced body weight under all treatment conditions | food intake ([5]; vs vehicle treated counterparts): ate less than their vehicle treated counterparts | body composition (DIO Levin rats): favorable effects on body composition | body weight gain (DIO Levin rats): significant effect on slowing body weight gain | weight gain compared to vehicle rats [6]: significant reduction in weight gain | Moisture [6, 8]: 67.57 ± 0.7 % | Protein [6, 8]: 20.67 ± 0.74% | Weight [6, 8]: 392.25* g | Fat ([6]; amylin, 28-day pump): 7.2 ± 1.5 % | percent body fat ([6]; relative to pair-fed): lower percent body fat relative to pair-fed | percent body fat (DIO (Levin) male rats; DIO rats): significant decrease in percent body fat | percent protein (DIO (Levin) male rats; DIO rats): significant preservation or gain in percent protein | weight gain compared to vehicle rats (DIO (Levin) male rats; DIO rats): significant reduction in weight gain | Ash (DIO (Levin) male rats; DIO rats, 28-day pump): 1.65 ± 0.34% | Fat (DIO (Levin) male rats; [9]): 24.3 ± 6.5 % | Moisture (DIO (Levin) male rats; [9]): 56.68 ± 4.4 % | Protein (DIO (Levin) male rats; [9]): 18.09 ± 1.68 % | Weight (DIO (Levin) male rats; [9]): 548.94* g | muscle glycogen content (DIO (Levin) male rats; rat, in vivo): significantly reduced muscle glycogen content | body weight gain (high fat-fed rats; 30 μg/kg/day): reduction in body weight gain | effects on food intake and body weight (high fat-fed rats; 30, 100, 300 μg/kg/day): dose-dependent | protein (body composition) [7]: increase in protein | effect on food intake tapers off after [4]: 60 min | onset of effect on food intake [4]: ≤ 30 min
